# Results reported in US20120129842A1, “BISTHIAZOLE INHIBITORS OF PRO-MATRIX METALLOPROTEINASE ACTIVATION” (priority 2010, published 2012).
# Legend:
# [1] = biological target: T1, proMMP9 (Rattus norvegicus, UniProt P50282); assay: Activation of proMMP9 in rat synoviocyte cultures (Western blot); format: cell-based; conditions: 80 kD band, pAb-1246
# T1 construct: endogenous in cells; host or cells: primary synoviocytes from arthritic female Lewis rats, TNFα-stimulated in collagen gels
# Source text: A primary synoviocytes line was derived from the periarticular tissue of arthritic rats. Arthritis was induced in female Lewis rats following an i.p. administration of streptococcal cell wall peptidoglycan polysaccharides (J Exp Med 1977; 146:1585-1602). Rats with established arthritis were sacrificed, and hind-limbs were severed, immersed briefly in 70% ethanol, and placed in a sterile hood. The skin was removed and the inflamed tissue surrounding the tibia-tarsal joint was harvested using a scalpel. Tissue from six rats was pooled, minced to approximately 8 mm^3 pieces, and cultured in Dulbecco's Modified Eagle's Medium (DMEM) containing 15% fetal calf serum (FCS). In the following weeks, cells migrated out of the tissue piece, proliferated, and formed a monolayer of adherent cells. The synoviocytes were lifted from culture plates with 0.05% trypsin and passaged weekly at 1:4 ratios in DMEM containing 10% FCS. Synoviocytes were used at passage 9 to investigate the ability of Example 64 to inhibit the maturation of MMP9 to active form.
# Rat synoviocytes spontaneously expressed and activated MMP9 when cultured in collagen gels and stimulated with tumor necrosis factor-alpha (TNFα) (FIG. 1 and Table 3). Eight volumes of an ice-cold solution of 3.8 mg/mL rat tail collagen (Sigma Cat #C3867-1VL) were mixed with 1 volume of 1 M sodium bicarbonate and 1 volume of 10× Roswell Park Memorial Institute medium. The pH of the mixture was adjusted to pH 7 with 1 N sodium hydroxide and equal volumes of the pH-adjusted collagen solution were mixed with DMEM containing 0.8 million synoviocytes per mL. One half mL volumes were dispensed into Costar 24-well culture dishes and placed for one hr at 37° C. and 5% CO2, during which time the collagen solution formed a gel. Individual gels were dislodged into wells of 12-well Costar plates containing 1 mL/well of DMEM adjusted to contain 0.05% BSA and 100 ng/mL mouse TNFα (R&D Systems Cat #410-MT-010). […] After overnight culture at 37° C. and 5% CO2, wells were adjusted to contain an additional 0.5 mL of DMEM containing 0.05% BSA and Example 64 at 4× the final desired concentration (final culture volumes were 2 mL). The plates were cultured an additional 48 hrs, at which time 1 mL of conditioned media were harvested into fresh eppendorf tubes containing 40 μL/mL of a 50% slurry of gelatin-conjugated sepharose (GE Healthcare Cat #17-0956-01). Samples were rotated for 2 hrs at 4° C. before centrifugation 1 min×200 g. Supernatants were discarded. The gelatin-sepharose pellets were washed once with 1 mL of ice cold DMEM, resuspended in 50 μL of 2× reducing Leamli buffer and heated 5 min at 95° C. […] Chemiluminesence signal was analyzed using a ChemiDoc imaging system (BioRad Laboratories) and Quantity One® image software. […]
# [2] = biological target: T2, full-length proMMP9(1-707) (SEQ ID NO:1) (Homo sapiens, UniProt P14780, R574P); assay: proMMP9/MMP3 P126 Activation Assay; format: biochemical; conditions: 20 nM proMMP9, 20 nM MMP3, 80 min 37° C.
# T2 construct: made in house; host or cells: HEK293 (proMMP9, secreted); E. coli (MMP3)
# T2 sequence (P14780 20-707 R574P): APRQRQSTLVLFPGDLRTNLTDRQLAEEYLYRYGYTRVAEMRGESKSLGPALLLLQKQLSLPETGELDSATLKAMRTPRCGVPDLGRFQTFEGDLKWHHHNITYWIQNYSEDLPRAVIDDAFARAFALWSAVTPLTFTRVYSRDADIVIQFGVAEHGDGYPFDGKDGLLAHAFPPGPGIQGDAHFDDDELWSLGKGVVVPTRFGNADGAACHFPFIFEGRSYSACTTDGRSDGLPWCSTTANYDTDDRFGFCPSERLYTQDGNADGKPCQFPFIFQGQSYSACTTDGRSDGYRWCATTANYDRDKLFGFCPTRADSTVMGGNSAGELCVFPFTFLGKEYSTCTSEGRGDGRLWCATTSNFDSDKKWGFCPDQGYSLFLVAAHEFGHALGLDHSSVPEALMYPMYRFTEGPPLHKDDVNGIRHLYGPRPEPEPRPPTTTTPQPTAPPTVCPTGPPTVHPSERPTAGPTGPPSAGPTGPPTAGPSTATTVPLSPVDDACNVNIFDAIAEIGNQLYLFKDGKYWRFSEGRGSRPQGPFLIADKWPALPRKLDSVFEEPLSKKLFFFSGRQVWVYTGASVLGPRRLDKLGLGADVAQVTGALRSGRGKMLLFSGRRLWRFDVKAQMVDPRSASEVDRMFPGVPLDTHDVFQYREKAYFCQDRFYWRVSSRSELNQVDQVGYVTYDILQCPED
# Experimental: The reaction volume was 50 μL. […] Reactivity of residual MMP3 towards P-126 substrate was minimal under these conditions.
# T1 sequence (P50282 20-708 limits assumed): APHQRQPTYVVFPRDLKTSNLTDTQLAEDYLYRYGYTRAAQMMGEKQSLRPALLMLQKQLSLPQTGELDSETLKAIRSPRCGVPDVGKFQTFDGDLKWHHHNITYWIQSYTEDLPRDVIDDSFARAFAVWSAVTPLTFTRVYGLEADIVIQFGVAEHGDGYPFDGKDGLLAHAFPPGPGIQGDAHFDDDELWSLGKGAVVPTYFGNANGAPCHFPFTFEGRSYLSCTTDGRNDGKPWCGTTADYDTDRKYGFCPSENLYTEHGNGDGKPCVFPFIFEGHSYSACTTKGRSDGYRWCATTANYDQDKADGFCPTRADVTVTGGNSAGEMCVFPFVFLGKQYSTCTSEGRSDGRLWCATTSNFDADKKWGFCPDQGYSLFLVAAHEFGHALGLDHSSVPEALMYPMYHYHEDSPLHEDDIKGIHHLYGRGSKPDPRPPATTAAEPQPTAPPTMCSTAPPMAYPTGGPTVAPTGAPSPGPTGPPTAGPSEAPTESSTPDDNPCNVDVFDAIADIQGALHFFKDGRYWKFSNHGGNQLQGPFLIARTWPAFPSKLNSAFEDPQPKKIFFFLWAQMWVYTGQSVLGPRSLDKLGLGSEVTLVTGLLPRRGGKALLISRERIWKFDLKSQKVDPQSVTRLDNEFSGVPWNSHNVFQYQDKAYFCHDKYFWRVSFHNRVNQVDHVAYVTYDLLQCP
smiles,measurement,setting,value
"Cc1nc(C)c(-c2csc(Nc3cc(S(N)(=O)=O)ccc3OC(C)C)n2)s1 [Example 64, 3-(2′,4′-Dimethyl-[4,5′]bithiazolyl-2-ylamino)-4-isopropoxy-benzenesulfonamide.HBr]",inhibition at 0.37 µM,[1]; 0.37 μM,12%
same,inhibition at 1.1 µM,[1]; 1.1 μM,46%
same,inhibition at 3.3 µM,[1]; 3.3 μM,86%
same,inhibition at 10 µM,[1]; 10 μM,97%
same,IC50,[2],180 nM
